Results from US7674816B2, “Substituted melatonin derivatives, process for their preparation, and methods of use” (Abraxis BioScience, LLC, priority 2003, dated 2010).

How the values were obtained:
GABAA agonist site = GABAA agonist site competitive binding (3H-GABA); conditions: Conc. 1.0E−3 M, bovine hippocampus
Excerpt: (§1) The binding profile of exemplary inventive compounds to neurotransmitter receptor sites is set forth below in Table 1. The characterization of the receptors, isolation of the membrane, and enzyme assay have been described in detail previously (see, e.g., Cole et al., Life Sci., 35, 1755 (1984), Lawrence et al., J. Neurochem., 45(3), 798 (1985), Sweetnam et al., Mol. Pharmacology, 29, 299 (1986), Zarkovsky et al., Neuropharmacology, 26 (7A), 737 (1987), Li et al., Eur. J. Pharmacology, 413, 63 (2001), and Markela et al., Mol. Pharmacology, 52, 380 (1997)).
(§2) The melatonin binding site on GABAA was defined using a series of competitive binding assays. Frozen bovine hippocampus was thawed and homogenized in 40 volumes of ice-cold 0.32 M sucrose. The suspension was centrifuged at 1000×g for 10 minutes at 4° C. The pellet was washed twice in assay buffer and reacted with radioactive ligand in presence or absence of melatonin at 10^−4 M final concentration. The amount of radioactivity remained on the Whatman filter following filtration of the reaction mix and two washes with assay buffer was determined using a liquid scintillation counter. Inhibition of radioactive ligand binding by melatonin represents the competitive binding of melatonin to the same site as the radioactive ligand. GABAA agonist site, GABAA α-1 site, GABAA α-5 site, GABAA α-6 site, and GABAA Cl channel were assayed using ^3H-GABA, ^3H-flunitrazepam, ^3H-RY80, ^3H-Ro 15-4513, and ^3H-TBOB.

GABAA α-5 site = biological target: T1, GABAA α-5 site (Bos taurus, UniProt P22300+Q08E50); test: GABAA alpha 5 site competitive binding (3H-RY80); conditions: bovine hippocampus
T1 construct: Frozen bovine hippocampus was thawed and homogenized in 40 volumes of ice-cold 0.32 M sucrose; from tissue; host or cells: bovine hippocampus membranes (washed pellet)
T1 sequence (Q08E50 32-462): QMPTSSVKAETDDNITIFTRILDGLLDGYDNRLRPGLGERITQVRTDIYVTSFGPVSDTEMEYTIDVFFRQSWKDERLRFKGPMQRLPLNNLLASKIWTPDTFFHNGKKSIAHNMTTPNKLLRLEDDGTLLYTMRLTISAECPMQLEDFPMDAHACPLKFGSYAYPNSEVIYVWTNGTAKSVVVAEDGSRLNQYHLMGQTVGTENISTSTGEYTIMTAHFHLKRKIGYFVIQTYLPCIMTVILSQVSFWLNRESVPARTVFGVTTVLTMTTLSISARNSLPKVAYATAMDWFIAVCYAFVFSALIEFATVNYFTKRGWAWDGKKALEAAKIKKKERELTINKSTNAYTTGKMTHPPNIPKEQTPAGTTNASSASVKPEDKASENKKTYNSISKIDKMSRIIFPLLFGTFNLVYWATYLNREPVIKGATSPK
T1 sequence (P22300 40-475): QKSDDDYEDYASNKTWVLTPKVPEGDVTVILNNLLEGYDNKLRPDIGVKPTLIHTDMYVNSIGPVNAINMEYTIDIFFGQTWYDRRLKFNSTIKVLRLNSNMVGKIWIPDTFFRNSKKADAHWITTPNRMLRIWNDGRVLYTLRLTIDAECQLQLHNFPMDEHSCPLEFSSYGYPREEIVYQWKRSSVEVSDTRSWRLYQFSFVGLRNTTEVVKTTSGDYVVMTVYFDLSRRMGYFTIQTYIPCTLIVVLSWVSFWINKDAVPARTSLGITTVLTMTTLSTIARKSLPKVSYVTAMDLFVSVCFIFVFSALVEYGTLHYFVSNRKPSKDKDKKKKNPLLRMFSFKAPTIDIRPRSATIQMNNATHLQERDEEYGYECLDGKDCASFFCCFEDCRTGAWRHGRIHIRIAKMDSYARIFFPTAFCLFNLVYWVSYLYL
Description: Frozen bovine hippocampus was thawed and homogenized in 40 volumes of ice-cold 0.32 M sucrose. The suspension was centrifuged at 1000×g for 10 minutes at 4° C. […] The amount of radioactivity remained on the Whatman filter following filtration of the reaction mix and two washes with assay buffer was determined using a liquid scintillation counter. Inhibition of radioactive ligand binding by melatonin represents the competitive binding of melatonin to the same site as the radioactive ligand.

GABAA α-1 site [1] = test: GABAA alpha 1 site competitive binding (3H-flunitrazepam); conditions: Conc. 1.0E−3 M, bovine hippocampus
GABAA α-6 site [2] = test: GABAA alpha 6 site competitive binding (3H-Ro 15-4513); conditions: Conc. 1.0E−3 M, bovine hippocampus
GABAA Cl channel [3] = test: GABAA Cl channel, TBOB site competitive binding (3H-TBOB), single concentration; conditions: Conc. 1.0E−3 M, bovine hippocampus
GABAA α-1 site [4] = test: GABAA alpha 1 site competitive binding (3H-flunitrazepam); conditions: Conc. 1.0E−4 M, bovine hippocampus
Excerpt: as §1, §2

GABAA α-6 site [5] = test: GABAA alpha 6 site competitive binding (3H-Ro 15-4513); conditions: Conc. 1.0E−4 M, bovine hippocampus
Excerpt: as §1, §2

GABAA Cl channel [6] = test: GABAA Cl channel, TBOB site competitive binding (3H-TBOB), single concentration; conditions: Conc. 1.0E−4 M, bovine hippocampus
Excerpt: as §1, §2

Compound	Specific binding, GABAA Agonist site (inhibition of radioactive ligand binding) (GABAA agonist site) [%]	Specific binding, GABAA Alpha 5 site (inhibition of radioactive ligand binding) (GABAA α-5 site; Conc. 1.0E−3 M) [%]	Specific binding, GABAA Alpha 1 site (inhibition of radioactive ligand binding) (GABAA α-1 site [1]) [%]	Specific binding, GABAA Alpha 6 site (inhibition of radioactive ligand binding) (GABAA α-6 site [2]) [%]	Specific binding, GABAA Ion Channels Cl−, TBOB site (inhibition of radioactive ligand binding) (GABAA Cl channel [3]) [%]	Specific binding, GABAA Alpha 1 site (inhibition of radioactive ligand binding) (GABAA α-1 site [4]) [%]	Specific binding, GABAA Alpha 5 site (inhibition of radioactive ligand binding) (GABAA α-5 site; Conc. 1.0E−4 M) [%]	Specific binding, GABAA Alpha 6 site (inhibition of radioactive ligand binding) (GABAA α-6 site [5]) [%]	Specific binding, GABAA Ion Channels Cl−, TBOB site (inhibition of radioactive ligand binding) (GABAA Cl channel [6]) [%]
COc1cc2c(CCNC(C)=O)c[nH]c2cc1Cl [6-Chloromelatonin]	−13.74	13.95	12.49	−7.74	43.63				
COc1ccc(-c2[nH]c3ccc(OC)cc3c2CCNC(C)=O)cc1						−8.16	7.09	6.68	108.82
